From ChEMBL document CHEMBL4725229, “Positional Analogue Scanning: An Effective Strategy for Multiparameter Optimization in Drug Design” (J Med Chem, 2020)
Activity calls are given as the source filed them. No cut-off for these calls is given here.

How the values were obtained:
[1] = Apparent permeability across apical to basolateral side in pig LLC-PK1 cells; format: ADME, cell-based, Sus scrofa
[2] = target: T1, Sphingosine 1-phosphate receptor 3 (Homo sapiens, UniProt Q99500); assay: Agonist activity at S1P3 (unknown origin)
T1 sequence (Q99500 whole entry): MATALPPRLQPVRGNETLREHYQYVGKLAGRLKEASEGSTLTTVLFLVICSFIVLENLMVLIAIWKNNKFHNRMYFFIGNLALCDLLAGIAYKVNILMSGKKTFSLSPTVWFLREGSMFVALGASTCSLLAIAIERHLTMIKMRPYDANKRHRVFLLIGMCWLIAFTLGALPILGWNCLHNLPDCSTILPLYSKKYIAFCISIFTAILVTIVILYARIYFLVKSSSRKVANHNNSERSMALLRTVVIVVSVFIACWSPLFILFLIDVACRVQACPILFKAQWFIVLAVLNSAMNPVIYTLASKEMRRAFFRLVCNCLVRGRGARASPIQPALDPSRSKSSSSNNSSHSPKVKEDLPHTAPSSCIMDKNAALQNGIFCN

[3] = target: T1, Sphingosine 1-phosphate receptor 3; assay: Agonist activity at S1P3 (unknown origin) relative to control
[4] = target: Sphingosine 1-phosphate receptor 1 (Homo sapiens) (UniProt P21453); assay: Agonist activity at S1P1 (unknown origin) relative to control; settings: filed as agonist
Sequence of Sphingosine 1-phosphate receptor 1 (Homo sapiens) (P21453 whole entry): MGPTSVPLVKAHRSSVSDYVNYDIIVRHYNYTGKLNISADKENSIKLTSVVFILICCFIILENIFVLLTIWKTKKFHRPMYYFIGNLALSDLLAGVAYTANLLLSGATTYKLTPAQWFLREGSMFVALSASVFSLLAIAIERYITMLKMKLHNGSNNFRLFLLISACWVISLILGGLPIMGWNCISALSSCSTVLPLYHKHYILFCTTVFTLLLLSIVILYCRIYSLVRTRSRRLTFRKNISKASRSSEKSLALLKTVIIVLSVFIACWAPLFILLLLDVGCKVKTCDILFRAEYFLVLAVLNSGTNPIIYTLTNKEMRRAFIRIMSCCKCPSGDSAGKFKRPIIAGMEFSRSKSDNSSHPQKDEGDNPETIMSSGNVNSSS

SMILES | Papp A→B [1] [×10⁻⁶ cm/s] | EC50 [2] | Emax [3] | Emax [4] [%] | Emax ([3]; filed as agonist) [%]
Cn1nc(C(=O)Nc2ccc(-c3ccccc3)c(C(F)(F)F)c2)c(=O)c2ccccc21 | 2.3 | Not Active | inactive | 130 | 
Cn1cc(C(=O)Nc2ccc(-c3ccccn3)c(C(F)(F)F)c2)c(=O)c2ccccc21 | 11 | Not Active | inactive | 110 | 
Cn1cc(C(=O)Nc2ccc(-c3ccccc3)c(C(F)(F)F)c2)c(=O)c2ncccc21 | 16 | Not Active | inactive | 86 | 
Cn1cc(C(=O)Nc2ccc(-c3ccccc3)c(C(F)(F)F)c2)c(=O)c2cnccc21 | 5.7 | Not Active | inactive | 100 | 
Cn1cc(C(=O)Nc2ccc(-c3cccnc3)c(C(F)(F)F)c2)c(=O)c2ccccc21 | 18 | Not Active | inactive | 110 | 
Cn1cc(C(=O)Nc2cc(C(F)(F)F)c(-c3ccccc3)cn2)c(=O)c2ccccc21 | < 1 | Not Active | inactive | 59 | 
Cn1cc(C(=O)Nc2ccc(-c3ccncc3)c(C(F)(F)F)c2)c(=O)c2ccccc21 | 15 | Not Active | inactive | 110 | 
Cn1cc(C(=O)Nc2ccc(-c3ccccc3)c(C(F)(F)F)c2)c(=O)c2ccccc21 | 1.2 |  |  | 110 | 92
Cn1cc(C(=O)Nc2ccc(-c3ccccc3)c(C(F)(F)F)n2)c(=O)c2ccccc21 | < 1 | Not Active | inactive | 120 | 
Cn1cc(C(=O)Nc2cnc(-c3ccccc3)c(C(F)(F)F)c2)c(=O)c2ccccc21 | 11 | Not Active | inactive | 170 | 
Cn1cc(C(=O)Nc2ccc(-c3ccccc3)c(C(F)(F)F)c2)c(=O)c2cccnc21 | 2.2 | Not Active | inactive | 100 | 
Cn1cc(C(=O)Nc2ccc(-c3ccccc3)c(C(F)(F)F)n2)c(=O)c2cnccc21 | 6.7 | Not Active | inactive | 120 | 
Cn1cc(C(=O)Nc2ccc(-c3ccccc3)c(C(F)(F)F)c2)c(=O)c2ccncc21 | 3.4 | Not Active | inactive | 120 | 
